Each compound was assayed against Galectin-3 (Homo sapiens, UniProt P17931) (assay: Fluorescence Anisotropy Assay: The affinity of Example 1-71 for galectins were determined by a fluorescence anisotropy assay where the compound was used as an inhibitor of the interaction between galectin and a fluorescein tagged saccharide probe).
Chain of Galectin-3 (P17931 whole entry): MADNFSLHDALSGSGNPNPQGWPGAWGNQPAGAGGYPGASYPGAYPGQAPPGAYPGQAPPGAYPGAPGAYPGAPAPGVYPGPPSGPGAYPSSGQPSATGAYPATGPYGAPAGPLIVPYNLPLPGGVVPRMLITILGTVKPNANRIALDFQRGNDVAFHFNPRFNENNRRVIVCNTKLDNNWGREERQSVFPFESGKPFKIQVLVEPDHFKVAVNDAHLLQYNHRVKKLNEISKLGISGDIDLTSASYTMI

Kd	Compound
16 nM	COC1[C@@H](Sc2cc(Cl)cnc2C(=O)N2CCC2)OC(CO)[C@H](O)[C@@H]1n1cc(-c2cc(F)c(Cl)c(F)c2)nn1 (some centres undefined)
21 nM	CCOC1[C@@H](Sc2cc(Cl)cnc2C(=O)N2CCC2)OC(CO)[C@H](O)[C@@H]1n1cc(-c2cc(F)c(F)c(F)c2)nn1 (some centres undefined)
10 nM	COC1[C@@H](Sc2cc(Cl)cnc2C(=O)N2CCC2)OC(CO)[C@H](O)[C@@H]1n1cc(-c2cc(F)c(F)c(F)c2)nn1 (some centres undefined)
11 nM	CCOC1[C@@H](Sc2cc(Cl)cnc2C(=O)N2CCC2)OC(CO)[C@H](O)[C@@H]1n1cc(-c2cc(F)c(Cl)c(F)c2)nn1 (some centres undefined)
7 nM	COC1[C@@H](Sc2cc(Br)cnc2C(=O)N2CCC2)OC(CO)[C@H](O)[C@@H]1n1cc(-c2ccc(Cl)c(F)c2)nn1 (some centres undefined)
21 nM	COC1[C@@H](Sc2cc(Cl)cnc2C(=O)N2CCC2)OC(CO)[C@H](O)[C@@H]1n1cc(-c2ccc(Cl)c(F)c2)nn1 (some centres undefined)
8 nM	CCOC1[C@@H](Sc2cc(Br)cnc2C(=O)N2CCC2)OC(CO)[C@H](O)[C@@H]1n1cc(-c2ccc(Cl)c(F)c2)nn1 (some centres undefined)
6 nM	COC1[C@@H](Sc2cc(Br)cnc2C(=O)N2CCC2)OC(CO)[C@H](O)[C@@H]1n1cc(-c2cc(F)c(F)c(F)c2)nn1 (some centres undefined)
17 nM	CCOC1[C@@H](Sc2cc(Cl)cnc2C(=O)N2CCC2)OC(CO)[C@H](O)[C@@H]1n1cc(-c2ccc(Cl)c(F)c2)nn1 (some centres undefined)

From ChEMBL document CHEMBL5729330, “Galactoside inhibitor of galectins” (2022)
